Assay results: patent publication US11813270B2, “Nitric oxide-releasing antibacterial compounds, formulations, and methods pertaining thereto” (KNOW BIO, LLC, priority 2020, dated 2023)

Assays:
Mycobacterium abscessus = test: MIC/MBC assay (CLSI method); type: cell-based; conditions: unit not given
Pseudomonas aeruginosa = test: MIC/MBC assay (CLSI method); type: cell-based; conditions: combined composition of β-cyclodextrin and MTDD

Structure (SMILES) | MBC (Mycobacterium abscessus; M. abscessus N0010, clinical) | MIC (Mycobacterium abscessus; M. abscessus N0010, clinical) | MBC (Mycobacterium abscessus; M. abscessus N0016, clinical) | MIC (Mycobacterium abscessus; M. abscessus N0016, clinical) | MBC (Mycobacterium abscessus; M. abscessus N0017, clinical) | MIC (Mycobacterium abscessus; M. abscessus N0017, clinical) | MBC (Mycobacterium abscessus; M. abscessus N0018, clinical) | MIC (Mycobacterium abscessus; M. abscessus N0018, clinical) | MBC (Mycobacterium abscessus; M. abscessus N0019, clinical) | MIC (Mycobacterium abscessus; M. abscessus N0019, clinical) | MBC (Mycobacterium abscessus; M. abscessus N0020, clinical) | MIC (Mycobacterium abscessus; M. abscessus N0020, clinical) | MBC (Mycobacterium abscessus; M. abscessus N0046) | MIC (Mycobacterium abscessus; M. abscessus N0046) | NO Load (unit not given) | NO-loading (combined composition of β-cyclodextrin and MTDD) | MIC against P. aeruginosa (Pseudomonas aeruginosa)
C[C@@H]1CCC[C@H](C)N1[N+]([O-])=N[O-].[Na+] [cis-DMP/NO] | 4 | 1 | 4 | 2 | 4 | 2 | 4 | 1 | 4 | 2 | 2 | 1 | 4 | 2 | 6.9 | – | –
OC[C@H]1O[C@@H]2O[C@H]3[C@H](O)[C@@H](O)[C@@H](O[C@H]4[C@H](O)[C@@H](O)[C@@H](O[C@H]5[C@H](O)[C@@H](O)[C@@H](O[C@H]6[C@H](O)[C@@H](O)[C@@H](O[C@H]7[C@H](O)[C@@H](O)[C@@H](O[C@H]8[C@H](O)[C@@H](O)[C@@H](O[C@H]1[C@H](O)[C@H]2O)O[C@@H]8CO)O[C@@H]7CO)O[C@@H]6CO)O[C@@H]5CO)O[C@@H]4CO)O[C@@H]3CO [0% MTDD, β-cyclodextrin] | – | – | – | – | – | – | – | – | – | – | – | – | – | – | – | 0.0 µmol/mg | >6250 µg/mL
